{
  "source": "patent US20160193251A1",
  "about": "“METHOD FOR TREATING ALS VIA THE INCREASED PRODUCTION OF FACTOR H” (BioViva USA Inc., priority 2013, published 2016)",
  "molecules": {"B1": {"name": "GDNF: Glial derived neurotrophic factor; in b58 given by ex vivo gene delivery within muscles (protein, UniProt P39905 78-211, looked up)", "Glial cell line-derived …": "SPDKQMAVLPRRERNRQAAAANPENSRGKGRRGQRGKNRGCVLTAIHLNVTDLGLGYETKEELIFRYCSGSCDAAETTYDKILKNLSRNRRLVSDKVGQACCRPIAFDDDLSFLDDNLVYHILRKHSAKRCGCI"}, "B2": {"name": "CNTF: a neurotrophic factor that is protective of neurons (protein, UniProt P26441 1-200, looked up)", "Ciliary neurotrophic factor": "MAFTEHSPLTPHRRDLCSRSIWLARKIRSDLTALTESYVKHQGLNKNINLDSADGMPVASTDQWSELTEAERLQENLQAYRTFHVLLARLLEDQQVHFTPTEGDFHQAIHTLLLQVAAFAYQIEELMILLEYKIPRNEADGMPINVGDGGLFEKKLWGLKVLQELSQWTVRSIHDLRFISSHQTGIPARGSHYIANNKKM"}},
  "key": {"ALS mouse model": {"system": "ALS mouse model", "details": "cited from earlier work"}, "stem cells from fat": {"system": "stem cells from fat", "experiment": "Reprogramming of harvested adipose stem cells by drug treatment", "format": "cell-based", "details": "harvested stem cells treated with the drug", "source_text": "Embodiments of the present invention include performing adult adipose derived stem cell therapy to treat patients with ALS. Amyelotrophic Lateral Sclerosis (ALS) is a fatal disease with no treatment options. Since ALS is a neurological disorder, it was believed that patients would need neural stem cells, not the mesenchymal type stem cells that we have obtained from harvested adipose tissue. But, because neural stem cells are difficult to attain for various physiological and regulatory reasons, a new technical approach that targets the conversion or reprogramming of mesenchymal type stem cells that are obtained from adipose tissue recovered from the same patient to be treated has been generated.\nAn examplary stem cell therapy involves the use of adipose derived stem cells, which are then incubated with Selegeline, which results in preinduction into motor neurons. Initially, adipose tissue or fat is harvested via a minimally invasive liposuction. Then the fat is processed to separate the vascular stromal fraction of stem cells. […] Once processed, the majority of stem cells are administered into the spine (spinal fluid) via a lumbar puncture. A small dilute fraction of cells are injected into a select muscle group. […] The techniques allowing for culturing of stem cells and the reintroduction will help increase stem cell numbers. […]"}, "SOD1 rats": {"system": "SOD1 rats", "details": "ex vivo gene delivery within muscles, midstages of the disease; cited from earlier work"}, "[1]": {"details": "previous studies; cited from earlier work"}},
  "data": [
    {"molecule": "IGF-1: Insulin like growth factor 1", "values": [
      {"measurement": "progression", "setting": "ALS mouse model", "result": "delayed progression"},
      {"measurement": "survival", "setting": "ALS mouse model", "result": "increased survival"}
    ]},
    {"molecule": "C#CCN(C)[C@H](C)Cc1ccccc1", "note": "[Selegeline]", "values": [
      {"measurement": "reprogramming of stem cells", "setting": "stem cells from fat", "result": "able to reprogram the stem cells from fat into neural like cells"}
    ]},
    {"molecule": "B1", "values": [
      {"measurement": "number of neuromuscular connections and motor neuron cell bodies", "setting": "ALS mouse model", "result": "increased the number of neuromuscular connections and motor neuron cell bodies"},
      {"measurement": "number of neuromuscular connections and MN cell bodies", "setting": "SOD1 rats", "result": "significantly increased the number of neuromuscular connections"}
    ]},
    {"molecule": "B2", "values": [
      {"measurement": "half life", "setting": "[1]", "result": 2.9, "unit": "min"}
    ]}
  ]
}
